Assay results taken from US4568687A, “N-[2-4-(1H-Imidazol-1-yl)alkyl]-arylamides and pharmaceutical compositions” (American Cyanamid Company, priority 1984, dated 1986).
Counter-ions that a name gives are not always drawn.

The molecules below were run against T1, thromboxane synthetase (Rattus norvegicus, UniProt P49430) (assay: Inhibition of thromboxane (TXB2) formation in washed rat platelets, TXB2 by direct radioimmunoassay). Conditions: 10 min; Dose 10^-4 (unit inferred); SHR platelet suspension, 10 minutes at 37° C.
T1 construct: The platelets were isolated by centrifuging the PRP for 10 minutes; endogenous in cells; host or cells: washed platelets from arterial blood of Okamoto-Aoki spontaneously hypertensive rats (rats from Taconic Farms)
T1 sequence (P49430 1-533): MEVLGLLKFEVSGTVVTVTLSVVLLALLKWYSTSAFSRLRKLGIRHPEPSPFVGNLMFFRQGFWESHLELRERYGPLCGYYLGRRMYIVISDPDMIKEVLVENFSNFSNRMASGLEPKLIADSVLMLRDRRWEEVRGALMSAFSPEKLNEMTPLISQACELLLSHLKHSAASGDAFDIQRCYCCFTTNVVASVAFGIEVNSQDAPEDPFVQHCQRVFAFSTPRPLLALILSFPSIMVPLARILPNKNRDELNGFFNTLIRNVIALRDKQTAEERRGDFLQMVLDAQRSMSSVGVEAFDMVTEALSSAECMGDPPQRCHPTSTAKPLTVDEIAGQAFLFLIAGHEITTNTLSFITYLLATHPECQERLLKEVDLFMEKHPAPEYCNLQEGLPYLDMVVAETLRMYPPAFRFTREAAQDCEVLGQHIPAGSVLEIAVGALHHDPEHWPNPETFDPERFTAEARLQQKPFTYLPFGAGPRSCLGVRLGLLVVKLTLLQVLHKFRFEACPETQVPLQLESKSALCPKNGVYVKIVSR
Format: cell-based, Okamoto-Aoki spontaneously hypertensive rats (SHR)
Protocol: Under urethan anesthesia, […] of arterial blood was collected in one ml. of 3.2% sodium citrate in a polystyrene tube from Okamoto-Aoki spontaneously hypertensive rats (SHR) (Taconic Farms, Germantown, NY) between 19 and 24 weeks in age. The blood was diluted with 3 ml. cold saline and centrifuged at room temperature for 15 minutes at 460×g. The platelet rich plasma (PRP) was separated. The platelets were isolated by centrifuging the PRP for 10 minutes at 1060×g and were washed in 4 ml. cold oxygenated Krebs phosphate buffer, pH 7.4. The chilled patelets recovered from centrifuging at 800×g for 10 minutes were resuspended in oxygenated Krebs phosphate buffer and diluted to contain 4.5-6.0×10^4 platelets/μl.
The inhibition of thromboxane (TX) formation was studied by determining the […] of thromboxane B2 (TXB2), the stable hydrolysis product of TXA2. Assay samples, prepared on ice, contained 200 μl platelet suspension, 50 μl saline, and 50 μl vehicle or drug under study (OKY-1581, UK-37248-01, 1-benzylimidazole, or indomethacin). The samples were incubated for 10 minutes at 37° C. in a metabolic shaker. The reaction was terminated by immersing the tubes in an ice bath and adding 50 μl of 0.5M citric acid. The samples were centrifuged for 10 minutes in a refrigerated centrifuge and the supernatants thus obtained were decanted and stored at -20° C. The TXB2 content for each sample was determined by a direct radioimmunoassay (RIA) utilizing a TXB2 specific RIA kit purchased from New England Nuclear, Boston, MA and expressed as pg TXB2 formed minute^-1 sample^-1, from which the percent inhibition of TXB2 formation was calculated.

Row | SMILES | inhibition at 100 µM
1 | N#Cc1ccc(C(=O)NCCCn2ccnc2)cc1 [4-cyano-N--[3-(1H--imidazol-1-yl)propyl]benzamide] | 90.7%
2 | O=C(NCCCn1ccnc1)c1ccccc1Cl [2-chloro-N--[3-(1H--imidazol-1-yl)propyl]benzamide] | 99.7%
3 | O=C(NCCCCn1ccnc1)c1ccc(Cl)c(Cl)c1 [3,4-Dichloro-N-[4-(1H-imidazol-1-yl)butyl]benzamide] | 100%
4 | O=C(Cc1ccc(F)cc1)NCCCn1ccnc1 [4-fluoro-N--[3-(1H--imidazol-1-yl)propyl]benzeneacetamide, fumarate] | 53.1%
5 | O=C(NCCCn1ccnc1)C(=O)c1ccccc1 [N-[3-(1H-Imidazol-1-yl)propyl]-α-oxo-benzeneacetamide, fumarate] | 79.7%
6 | O=C(NCCCn1ccnc1)c1ccc(F)cc1 [4-fluoro-N--[3-(1H--imidazol-1-yl)propyl]benzamide] | 87.1%
7 | Cc1ccc(CC(=O)NCCCn2cnc(C)c2)cc1 [4-methyl-N--[3-(4-methyl-1H--imidazol-1-yl)propyl]phenylacetamide] | 76%
8 | CN(C)c1ccc(C(=O)NCCCn2ccnc2)cc1 [N--[3-(1H--imidazol-1-yl)propyl]-4-(dimethylamino)benzamide] | 93%
9 | O=C(NCCCCn1ccnc1)c1cccc2ccccc12 [N--[4-(1H--imidazol-1-yl)butyl]-naphthalene-1-carboxamide] | 95%
10 | CNc1ccccc1C(=O)NCCCn1ccnc1 [N--[3-(1H--imidazol-1-yl)propyl]-2-methylaminobenzamide] | 57%
11 | O=C1c2ccccc2C(=O)N1CCCCCn1ccnc1 [2-[5-(1H--imidazol-1-yl)pentyl]-1H--isoindole-1,3(2H)--dione] | 92%
12 | CCNc1ccccc1C(=O)NCCCn1ccnc1 [2-ethylamino-N--[3-(1H--imidazol-1-yl)propyl]benzamide] | 86%
13 | O=C(NCCCn1ccnc1)c1ccc(I)cc1 [N--[3-(1H--imidazol-1-yl)propyl]-4-iodobenzamide] | 96.7%
14 | Cc1cn(CCCNC(=O)c2ccc(I)cc2)cn1 [4-iodo-N--[3-(4-methyl-1H--imidazol-1-yl)propyl]benzamide] | 99%
15 | O=C(NCCCn1ccnc1)C(c1ccccc1)c1ccccc1 [N-[3-(1H-imidazol-1-yl)propyl]diphenylacetamide] | 84%
16 | Cc1ccc(C(=O)NCCCn2ccnc2)cc1 [N--[3-(1H--imidazol-1-yl)propyl]-4-methylbenzamide] | 83.2%
17 | CC(=O)Nc1ccc(C(=O)NCCCn2ccnc2)cc1 [4-(acetylamino)-N--[3-(1H--imidazol-1-yl)propyl]benzamide] | 98.7%
18 | Cc1cn(CCCNC(=O)c2cccc(Br)c2)cn1 [3-bromo-N--[3-(4-methyl-1H--imidazol-1-yl)propyl]benzamide] | 93%
19 | CC(=O)c1ccc(C(=O)NCCCn2ccnc2)cc1 [4-acetyl-N--[3-(1H--imidazol-1-yl)propyl]benzamide] | 89.5%
20 | CC(CCNC(=O)c1cccc(Cl)c1)n1ccnc1 (centres unmarked) [3-chloro-N--[3-(1H--imidazol-1-yl)butyl]benzamide] | 93%
21 | COc1ccc(C(=O)NCCCn2ccnc2)cc1 [N--[3-(1H--imidazol-1-yl)propyl]-4-methoxybenzamide] | 88.9%

Row | SMILES | inhibition at 100 µM
22 | O=C(NCCCn1ccnc1)c1cccc(C(F)(F)F)c1 [3-trifluoromethyl-N--[3-(1H--imidazol-1-yl)propyl]benzamide] | 84%
23 | O=C(COc1ccc(Cl)cc1)NCCCn1ccnc1 [2-(4-chlorophenoxy)-N--[3-(1H--imidazol-1-yl)propyl]acetamide] | 84.6%
24 | O=C(NCCCn1ccnc1)c1cccc(F)c1 [3-fluoro-N--[3-(1H--imidazol-1-yl)propyl]benzamide] | 95.8%
25 | CC(CCNC(=O)c1ccc(Cl)cc1)n1ccnc1 (centres unmarked) [4-chloro-N--[3-(1H--imidazol-1-yl)butyl]benzamide] | 96%
26 | O=C(COc1cccc(Cl)c1Cl)NCCCn1ccnc1 [2-(2,3-dichlorophenoxy)-N--[3-(1H--imidazol-1-yl)propyl]acetamide, fumarate] | 100%
27 | O=C(NCCCn1cnc(-c2ccccc2)c1)c1ccc(Br)cc1 [4-Bromo-N-[3-(4-phenyl-1H-imidazol-1-yl)propyl]benzamide] | 66%
28 | O=C(NCCCn1ccnc1)c1ccc(Cl)c(Cl)c1 [3,4-dichloro-N--[3-(1H--imidazol-1-yl)propyl]benzamide] | 92.7%
29 | O=C(NCCn1ccnc1)c1ccc(Cl)c(Cl)c1 [3,4-dichloro-N--[2-(1H--imidazol-1-yl)ethyl]benzamide] | 58.5%
30 | O=C(NCCCn1ccnc1)c1ccc(C(=O)c2ccccc2)cc1 [4-benzoyl-N--[3-(1H--imidazol-1-yl)propyl]benzamide] | 103%
31 | CC(CCNC(=O)c1ccc(Br)cc1)n1ccnc1 (centres unmarked) [4-bromo-N--[3-(1H--imidazol-1-yl)butyl]benzamide] | 91%
32 | O=C(NCCCn1ccnc1)c1ccc(-c2ccccc2)cc1 [N--[3-(1H--imidazol-1-yl)propyl][1,1'-biphenyl]-4-carboxamide] | 106%
33 | COc1cc(C(=O)NCCCn2ccnc2)cc(OC)c1OC [N--[3-(1H--imidazol-1-yl)propyl]-3,4,5-trimethoxybenzamide] | 101%
34 | O=C(NCCCn1ccnc1)C1c2ccccc2-c2ccccc21 [N--[3-(1H--imidazol-1-yl)propyl]-9H--fluorene-9-carboxamide] | 100%
35 | CS(=O)(=O)c1ccc(C(=O)NCCCn2ccnc2)cc1 [N--[3-(1H--imidazol-1-yl)propyl]-4-(methylsulfonyl)benzamide] | 80.1%
36 | O=C(NC(CCn1ccnc1)c1ccccc1)c1ccc(Cl)cc1 (centres unmarked) [4-chloro-N--[3-(1H--imidazol-1-yl)-1-phenylpropyl]benzamide] | 100%
37 | CC(CNC(=O)c1ccc(Cl)cc1)Cn1ccnc1 (centres unmarked) [4-chloro-N--[3-(1H--imidazol-1-yl)-2-methylpropyl]benzamide fumarate] | 100%
38 | CSc1ccc(C(=O)NCCCn2ccnc2)cc1 [N--[3-(1H--imidazol-1-yl)propyl]-4-(methylthio)-benzamide] | 102%
39 | O=C(NCCCn1ccnc1)c1ccccc1F [2-fluoro-N--[3-(1H--imidazol-l-yl)propyl]benzamide] | 83.9%
40 | O=C(NC(CCn1ccnc1)c1ccccc1)c1ccc(Br)cc1 (centres unmarked) [4-bromo-N--[3-(1H--imidazol-1-yl)-1-phenylpropyl]benzamide] | 100%
41 | O=C(COc1ccccc1)NCCCn1ccnc1 [N-[3-(1H-Imidazol-1-yl)propyl]-2-phenoxyacetamide] | 86.2%
